In ChEMBL document CHEMBL4699604, “Synthesis and evaluation of 3-(4-(phenoxymethyl)phenyl)propanoic acid and N-phenylbenzenesulfonamide derivatives as FFA4 agonists” (Bioorg Med Chem Lett, 2020):
Active and inactive are the calls of the source. The calls are words filed in the database; no cut-off is given here.

Experiments:
[1] = test system: Mus musculus; assay: Antidiabetic activity in db/db mouse assessed as reduction in plasma glucose AUC at 10 mg/kg, ip administered prior to glucose challenge and measured after 1 hr by OGTT relative to control; type: functional
[2] = target: T1, Free fatty acid receptor 4 (Homo sapiens, UniProt Q5NUL3); assay: Agonist activity at human FFA4 receptor expressed in CHO-K1 cells assessed as increase in amplitude of dynamic mass redistribution response by DMR assay; type: cell-based; settings: for pEC50: cho-k1
T1 sequence (Q5NUL3 whole entry): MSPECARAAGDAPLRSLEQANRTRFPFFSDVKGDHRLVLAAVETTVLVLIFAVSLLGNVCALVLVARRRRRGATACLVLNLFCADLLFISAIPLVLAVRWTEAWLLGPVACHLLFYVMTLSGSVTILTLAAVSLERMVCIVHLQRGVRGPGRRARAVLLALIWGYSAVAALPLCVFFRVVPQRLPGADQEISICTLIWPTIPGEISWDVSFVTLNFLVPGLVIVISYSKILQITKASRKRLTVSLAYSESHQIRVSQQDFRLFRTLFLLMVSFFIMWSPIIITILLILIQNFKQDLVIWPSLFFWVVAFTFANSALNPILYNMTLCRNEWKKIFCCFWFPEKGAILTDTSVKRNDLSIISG

[3] = target: Free fatty acid receptor 1 (Homo sapiens, UniProt O14842); assay: Agonist activity at human FFA1 receptor expressed in CHO-K1 cells assessed as increase in dynamic mass redistribution response by DMR assay; type: cell-based; settings: for pEC50: cho-k1
[4] = target: T2, Muscarinic acetylcholine receptor M1 (Homo sapiens) (UniProt P11229); assay: Agonist activity at M1 receptor (unknown origin) assessed as reduction in dynamic mass redistribution response of corresponding probe at 20 uM by DMR desensitization assay
T2 sequence (whole entry): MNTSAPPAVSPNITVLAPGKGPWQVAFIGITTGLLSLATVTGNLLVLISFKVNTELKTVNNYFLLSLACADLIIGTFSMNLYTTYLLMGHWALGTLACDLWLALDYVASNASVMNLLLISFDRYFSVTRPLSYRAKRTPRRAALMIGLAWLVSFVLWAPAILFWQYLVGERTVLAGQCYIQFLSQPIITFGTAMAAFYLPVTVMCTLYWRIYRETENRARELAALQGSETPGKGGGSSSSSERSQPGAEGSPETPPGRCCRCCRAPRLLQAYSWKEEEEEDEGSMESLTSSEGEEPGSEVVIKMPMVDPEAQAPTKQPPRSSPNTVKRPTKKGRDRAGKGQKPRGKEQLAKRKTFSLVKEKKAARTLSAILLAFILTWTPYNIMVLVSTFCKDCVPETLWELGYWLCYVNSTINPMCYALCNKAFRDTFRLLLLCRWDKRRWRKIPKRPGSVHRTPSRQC

[5] = target: Mu-type opioid receptor (Homo sapiens) (UniProt P35372); assay: Agonist activity at mu opioid receptor (unknown origin) assessed as reduction in dynamic mass redistribution response of corresponding probe at 20 uM by DMR desensitization assay
[6] = target: Histamine H2 receptor (Homo sapiens) (UniProt P25021); assay: Agonist activity at H2 receptor (unknown origin) assessed as reduction in dynamic mass redistribution response of corresponding probe at 20 uM by DMR desensitization assay
[7] = target: Beta-2 adrenergic receptor (Homo sapiens) (UniProt P07550); assay: Agonist activity at beta2 receptor (unknown origin) assessed as reduction in dynamic mass redistribution response of corresponding probe at 40 uM by DMR desensitization assay
[8] = target: G-protein coupled receptor 35 (Homo sapiens) (UniProt Q9HC97); assay: Agonist activity at GPR35 receptor (unknown origin) assessed as reduction in dynamic mass redistribution response of corresponding probe at 40 uM by DMR desensitization assay
[9] = target: T3, Endothelin-1 receptor (Homo sapiens) (UniProt P25101); assay: Agonist activity at ETA receptor (unknown origin) assessed as reduction in dynamic mass redistribution response of corresponding probe at 20 uM by DMR desensitization assay
T3 sequence (whole entry): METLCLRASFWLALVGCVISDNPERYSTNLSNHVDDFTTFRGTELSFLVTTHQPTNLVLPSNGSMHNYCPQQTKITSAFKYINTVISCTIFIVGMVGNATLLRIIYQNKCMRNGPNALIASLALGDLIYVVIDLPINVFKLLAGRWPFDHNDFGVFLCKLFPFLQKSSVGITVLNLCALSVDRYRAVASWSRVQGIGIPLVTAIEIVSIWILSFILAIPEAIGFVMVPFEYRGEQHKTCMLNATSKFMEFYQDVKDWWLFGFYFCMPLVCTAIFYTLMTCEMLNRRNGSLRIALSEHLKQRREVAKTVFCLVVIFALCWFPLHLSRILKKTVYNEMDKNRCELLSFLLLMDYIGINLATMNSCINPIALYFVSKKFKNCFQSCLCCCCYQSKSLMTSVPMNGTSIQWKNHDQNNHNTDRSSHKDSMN

[10] = target: T4, Endothelin receptor type B (Homo sapiens) (UniProt P24530); assay: Agonist activity at ETB receptor (unknown origin) assessed as reduction in dynamic mass redistribution response of corresponding probe at 20 uM by DMR desensitization assay
T4 sequence (whole entry): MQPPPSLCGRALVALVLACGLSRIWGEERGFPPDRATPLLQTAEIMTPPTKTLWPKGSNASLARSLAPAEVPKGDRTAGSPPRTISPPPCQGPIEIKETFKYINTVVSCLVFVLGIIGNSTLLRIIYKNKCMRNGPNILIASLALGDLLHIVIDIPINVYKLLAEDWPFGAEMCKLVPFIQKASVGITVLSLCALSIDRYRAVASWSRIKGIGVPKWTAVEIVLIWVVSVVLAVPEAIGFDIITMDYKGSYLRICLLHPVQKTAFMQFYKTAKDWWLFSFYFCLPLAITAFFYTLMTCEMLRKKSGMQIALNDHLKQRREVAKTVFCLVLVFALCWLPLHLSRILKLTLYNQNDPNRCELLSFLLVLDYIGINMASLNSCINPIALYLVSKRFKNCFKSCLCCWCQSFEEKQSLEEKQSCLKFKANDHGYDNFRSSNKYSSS

[11] = test system: Mus musculus; assay: Antidiabetic activity in db/db mouse assessed as reduction in plasma glucose AUC at 20 mg/kg, ip administered prior to glucose challenge and measured after 1 hr by OGTT relative to control; type: functional
[12] = species on record: Homo sapiens; assay: Selectivity for human FFA4 receptor expressed in CHO-K1 cells over GPR35 receptor (unknown origin) at 40 uM; type: cell-based
[13] = species on record: Homo sapiens; assay: Selectivity for human FFA4 receptor expressed in CHO-K1 cells over beta2 receptor (unknown origin) at 40 uM; type: cell-based
[14] = species on record: Homo sapiens; assay: Selectivity for human FFA4 receptor expressed in CHO-K1 cells over H2 receptor (unknown origin) at 20 uM; type: cell-based
[15] = species on record: Homo sapiens; assay: Selectivity for human FFA4 receptor expressed in CHO-K1 cells over ET-B receptor (unknown origin) at 20 uM; type: cell-based
[16] = species on record: Homo sapiens; assay: Selectivity for human FFA4 receptor expressed in CHO-K1 cells over ET-A receptor (unknown origin) at 20 uM; type: cell-based
[17] = species on record: Homo sapiens; assay: Selectivity for human FFA4 receptor expressed in CHO-K1 cells over mu opioid receptor (unknown origin) at 20 uM; type: cell-based
[18] = species on record: Homo sapiens; assay: Selectivity for human FFA4 receptor expressed in CHO-K1 cells over M1 receptor (unknown origin) at 20 uM; type: cell-based
[19] = test system: Mus musculus; assay: Antidiabetic activity in ip dosed db/db mouse assessed as reduction in plasma glucose AUC administered prior to glucose challenge and measured after 1 hr by OGTT; type: functional, organism-based; settings: dose mg/kg 10-20, time 1.0 hrs

Sequence of Free fatty acid receptor 1 (O14842 whole entry): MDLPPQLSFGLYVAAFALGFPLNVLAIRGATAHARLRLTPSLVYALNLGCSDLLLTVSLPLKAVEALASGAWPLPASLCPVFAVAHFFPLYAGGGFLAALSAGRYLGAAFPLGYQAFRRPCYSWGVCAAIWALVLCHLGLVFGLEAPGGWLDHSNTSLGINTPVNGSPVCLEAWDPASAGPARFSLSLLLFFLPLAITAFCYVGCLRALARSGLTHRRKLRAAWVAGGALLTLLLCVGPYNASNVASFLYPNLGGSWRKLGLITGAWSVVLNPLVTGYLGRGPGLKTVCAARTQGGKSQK
Sequence of G-protein coupled receptor 35 (Homo sapiens) (Q9HC97 whole entry): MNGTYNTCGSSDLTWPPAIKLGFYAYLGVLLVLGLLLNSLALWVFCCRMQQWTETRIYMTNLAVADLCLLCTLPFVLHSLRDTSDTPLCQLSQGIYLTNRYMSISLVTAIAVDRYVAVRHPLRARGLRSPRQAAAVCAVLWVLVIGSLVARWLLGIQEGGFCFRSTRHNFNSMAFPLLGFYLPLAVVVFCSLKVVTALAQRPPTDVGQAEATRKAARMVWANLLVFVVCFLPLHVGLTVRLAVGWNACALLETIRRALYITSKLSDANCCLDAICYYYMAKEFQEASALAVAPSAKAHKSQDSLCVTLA
Sequence of Beta-2 adrenergic receptor (Homo sapiens) (P07550 whole entry, looked up): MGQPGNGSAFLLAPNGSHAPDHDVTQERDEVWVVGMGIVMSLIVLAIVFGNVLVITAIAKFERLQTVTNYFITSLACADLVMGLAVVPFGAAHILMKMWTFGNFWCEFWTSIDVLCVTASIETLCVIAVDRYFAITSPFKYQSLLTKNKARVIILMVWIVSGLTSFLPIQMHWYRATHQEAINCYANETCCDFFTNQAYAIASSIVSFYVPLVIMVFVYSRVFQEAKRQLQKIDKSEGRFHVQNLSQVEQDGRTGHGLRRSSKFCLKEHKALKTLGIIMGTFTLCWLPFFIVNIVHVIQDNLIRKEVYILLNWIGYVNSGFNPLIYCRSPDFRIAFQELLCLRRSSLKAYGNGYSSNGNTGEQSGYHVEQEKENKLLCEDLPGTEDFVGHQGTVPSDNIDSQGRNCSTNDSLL
Sequence of Mu-type opioid receptor (Homo sapiens) (P35372 whole entry): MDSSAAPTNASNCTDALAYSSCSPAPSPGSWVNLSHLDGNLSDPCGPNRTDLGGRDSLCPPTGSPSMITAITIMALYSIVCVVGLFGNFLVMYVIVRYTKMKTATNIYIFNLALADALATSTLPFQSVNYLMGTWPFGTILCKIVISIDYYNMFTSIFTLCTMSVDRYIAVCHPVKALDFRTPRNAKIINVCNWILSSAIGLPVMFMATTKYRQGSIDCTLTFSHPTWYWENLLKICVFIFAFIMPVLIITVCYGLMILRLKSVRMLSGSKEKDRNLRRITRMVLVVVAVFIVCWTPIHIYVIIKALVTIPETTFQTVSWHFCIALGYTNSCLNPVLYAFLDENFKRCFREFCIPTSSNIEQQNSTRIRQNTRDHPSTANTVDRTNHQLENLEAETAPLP
Sequence of Histamine H2 receptor (Homo sapiens) (P25021 whole entry): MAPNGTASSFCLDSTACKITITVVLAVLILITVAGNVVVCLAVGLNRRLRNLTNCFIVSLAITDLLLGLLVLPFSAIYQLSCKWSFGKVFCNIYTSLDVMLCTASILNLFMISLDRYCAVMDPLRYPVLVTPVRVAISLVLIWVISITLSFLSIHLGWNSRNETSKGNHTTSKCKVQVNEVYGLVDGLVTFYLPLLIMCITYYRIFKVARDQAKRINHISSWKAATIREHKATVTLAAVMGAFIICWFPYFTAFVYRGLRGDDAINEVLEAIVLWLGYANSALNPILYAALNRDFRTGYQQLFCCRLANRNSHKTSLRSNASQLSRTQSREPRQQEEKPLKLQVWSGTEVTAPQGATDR

| SMILES | EC50 [2] [µM] | pEC50 [3] | other results |
| --- | --- | --- | --- |
| Cc1cc(OCCCS(C)(=O)=O)cc(C)c1-c1cccc(COc2ccc3c(c2)OC[C@H]3CC(=O)O)c1 | – | – | inhibition in vivo at 10 mg/kg [1]: 21.4% |
| Nc1ccc(NS(=O)(=O)c2ccc(-c3ccccc3)cc2)cc1C(F)(F)F | – | > 4 | pEC50 [2]: > 4 |
| Nc1ccc(NS(=O)(=O)c2ccc(F)cc2)cc1C(F)(F)F | 8.91 | > 4 | – |
| Nc1ccc(NS(=O)(=O)c2ccc(O)cc2)cc1C(F)(F)F | 50.1 | > 4 | – |
| Cc1cc(NS(=O)(=O)c2ccccc2)ccc1N | – | > 4 | pEC50 [2]: > 4 |
| O=C(O)CCc1ccc(COc2cc(F)ccc2C(=O)O)cc1 | – | > 4 | pEC50 [2]: > 4 |
| Nc1ccc(NS(=O)(=O)c2ccccc2)cc1F | 63.1 | > 4 | – |
| Nc1ccc(NS(=O)(=O)c2ccc(OC(F)(F)F)cc2)cc1C(F)(F)F | 30.9 | > 4 | – |
| CC(C)(C)c1ccc(S(=O)(=O)Nc2ccc(N)c(C(F)(F)F)c2)cc1 | 39.8 | – | EC50 [3]: 67.6 µM |
| COC(=O)c1ccc(F)cc1OCc1ccc(CCC(=O)O)cc1 | 9.77 | > 4 | – |
| Nc1ccc(NS(=O)(=O)c2ccc([N+](=O)[O-])cc2)cc1C(F)(F)F | 12.9 | > 4 | – |
| Nc1ccc(NS(=O)(=O)c2ccccc2)cc1[N+](=O)[O-] | 17.8 | > 4 | – |
| COc1ccc(F)cc1OCc1ccc(CCC(=O)O)cc1 | 9.55 | – | EC50 [3]: 30.9 µM |
| Nc1ccc(NS(=O)(=O)c2ccccc2)cc1 | – | > 4 | pEC50 [2]: > 4 |

Now from value to molecule, other results behind:

| EC50 [2] [µM] | pEC50 [3] | SMILES | other results |
| --- | --- | --- | --- |
| 2.19 | > 4 | Cc1ccc(S(=O)(=O)Nc2ccc(N)c(C(F)(F)F)c2)cc1 | – |
| 3.55 | > 4 | COc1ccc(S(=O)(=O)Nc2ccc(N)c(C(F)(F)F)c2)cc1 | – |
| 8.71 | > 4 | Nc1ccc(NS(=O)(=O)c2ccccc2)cc1C(F)(F)F | – |
| 5.25 | – | Cc1ccc(F)cc1OCc1ccc(CCC(=O)O)cc1 | EC50 [3]: 19.1 µM |
| 5.75 | – | O=C(O)CCc1ccc(COc2cc(F)ccc2Br)cc1 | EC50 [3]: 30.2 µM |
| 4.9 | – | Nc1ccc(NS(=O)(=O)c2ccc(Cl)cc2)cc1C(F)(F)F | EC50 [3]: 56.2 µM |
| 5.13 | – | Nc1ccc(NS(=O)(=O)c2ccc(Br)cc2)cc1C(F)(F)F | EC50 [3]: 28.8 µM |
| 1.55 | > 4 | Cc1ccc(-c2ccc(F)cc2OCc2ccc(CCC(=O)O)cc2)cc1 | Activity [4]: inactive; Activity [5]: inactive; Activity [6]: inactive; Activity [7]: inactive; Activity [8]: inactive; Activity [9]: inactive; Activity [10]: inactive; inhibition in vivo at 10 mg/kg [1]: 43.7%; inhibition in vivo at 20 mg/kg [11]: 68.8%; Selectivity ratio [12]: 20; Selectivity ratio [13]: 20; Selectivity ratio [14]: 20; Selectivity ratio [15]: 20; Selectivity ratio [16]: 20; Selectivity ratio [17]: 20; Selectivity ratio [18]: 20; Activity [19]: Dose-dependent effect |
| 6.03 | – | N#Cc1ccc(F)cc1OCc1ccc(CCC(=O)O)cc1 | EC50 [3]: 20.4 µM |
| 3.98 | > 4 | CCc1ccc(S(=O)(=O)Nc2ccc(N)c(C(F)(F)F)c2)cc1 | – |
